Data as given in patent US12497405B2, “Bicyclic heterocycle compounds methods of use thereof for the treatment of herpes viruses” (Merck Sharp & Dohme LLC, priority 2019, dated 2025).

Each compound was assayed on HSV1 (assay: Viral qPCR assay, HSV1). Details: Human alphaherpesvirus 1, 72 h, infected cells, viral genome copies by qPCR normalized to PPIA, read-out: HSV1 Cell EC50.
Assay type: cell-based
Method: (§1) MRC5 cells, Vero cells, and MeWo cells were obtained from ATCC, and were maintained at 37° C./5% CO2/90% relative humidity in Minimal Essential Medium with 10% fetal bovine serum, […] L-glutamine, 100 units/ml penicillin and 100 ug/ml streptomycin. Assay plates were prepared by dispensing compounds dissolved in DMSO into wells of 384 well collagen-coated plates using an ECHO acoustic dispenser. Each test compound was tested in a 10-point, serial 3-fold dilution. Controls included uninfected cells and infected cells treated only with DMSO. Assays were initiated by mixing selected cells, in suspension, with virus, and dispensing 50 μl/well infected cells to pre-plated compounds. Plates were incubated at 37° C./5% CO2/90% relative humidity for ˜72 hrs to permit genomic replication, and infected cells were lysed by the addition of an equal volume of lysis buffer (10 mM Tris-HCl, pH8, 50 mM KCl, 2 mM MgCl2, 0.45% NP-40, 0.45% Tween-20, and 100 µg/ml proteinase K). An aliquot of the lysate was then transferred to a 384-well PCR plate and incubated at 56° C. for 1 hour, and then at 95° C. for 10 minutes. Levels of the selected viral gene and of the cellular control, PPIA, were measured in separate 10 μl qPCR assays using TaqMan® Gene Expression Master Mix (Applied Biosystems), and an 7900HT Fast Real-Time PCR System with 384-Well Block Module. 7-point, serial 10-fold dilutions of a plasmid standard were run on each plate to generate a standard curve, and genome copies numbers were calculated by plotting experimental Ct onto linear regression of the standard curve. Viral genome copy numbers were normalized by cellular control copy number, and compound effects were normalized to the window defined by the controls. Calculated % effects were fit using a 4-parameter algorithm, and EC50 was reported.

SMILES | EC50 [nM]
O=C1OC[C@@H]2C[C@@H](Oc3cc4c(=O)n(Cc5ccc(Cl)cc5)c(CN5CCC5)nc4cc3-c3cnn(C(F)F)c3)CCN12 [Example 129] | 178
Cc1nc2cc(-c3cc4n(n3)CCN(C3CCOCC3)C4)c(O[C@H]3CCN4C(=O)OC[C@@H]4C3)cc2c(=O)n1Cc1ccc(Cl)cc1 [Example 108] | 198
COc1ccc(-c2cc3nc(C)n(Cc4ccc(Cl)cc4)c(=O)c3cc2O[C@H]2CCN3C(=O)OC[C@@H]3C2)nc1 [Example 112] | 148
O=C1OC[C@@H]2C[C@@H](Oc3cc4c(=O)n(Cc5ccc(Cl)cc5)c(OCC5CC5)nc4cc3-c3cnn(C(F)F)c3)CCN12 [Example 135] | 799
Cc1nn(C(F)F)cc1-c1cc2nc(C)n(Cc3ccc(Cl)cc3)c(=O)c2cc1O[C@H]1CCN2C(=O)OC[C@@H]2C1 [Example 92] | 796
Cc1nc2cc(-c3nc4ncccn4n3)c(O[C@H]3CCN4C(=O)OC[C@@H]4C3)cc2c(=O)n1Cc1ccc(Cl)cc1 [Example 103] | 55
O=C1OC[C@@H]2C[C@@H](Oc3cc4c(=O)n(Cc5ccc(Cl)cc5)cnc4nc3-c3cnco3)CCN12 [Example 37] | 19
Nc1nc2cc(-c3cnn(C(F)F)c3)c(O[C@H]3CCN4C(=O)OC[C@@H]4C3)cc2c(=O)n1Cc1ccc(Cl)cc1 [Example 111] | 101
COc1ncc(-c2cc3nc(C)n(Cc4ccc(Cl)cc4)c(=O)c3cc2O[C@H]2CCN3C(=O)OC[C@@H]3C2)c(C)n1 [Example 93] | 2590
O=C1OC[C@@H]2C[C@@H](Oc3cc4c(=O)n(Cc5ccc(Cl)cc5)c(CNCC(F)(F)F)nc4cc3-c3cnn(C(F)F)c3)CCN12 [Example 133] | 238
COc1cnc(-c2cc3nc(C)n(Cc4ccc(Cl)cc4)c(=O)c3cc2O[C@H]2CCN3C(=O)OC[C@@H]3C2)cn1 [Example 113] | 2680
O=C1OC[C@@H]2C[C@@H](Oc3cc4c(=O)n(Cc5ccc(Cl)cc5)c(OCCO)nc4cc3-c3cnn(C(F)F)c3)CCN12 [Example 102] | 71
COc1nc2cc(-c3cnn(C(F)F)c3)c(O[C@H]3CCN4C(=O)OC[C@@H]4C3)cc2c(=O)n1Cc1ccc(Cl)cc1 [Example 148] | 213
Cc1nc2cc(-c3cc4n(n3)C(C(F)(F)F)CN(C)C4)c(O[C@H]3CCN4C(=O)OC[C@@H]4C3)cc2c(=O)n1Cc1ccc(Cl)cc1 (single isomer, unassigned) [Example 151] | 233
O=C1OC[C@@H]2C[C@@H](Oc3cc4c(=O)n(Cc5ccc(Cl)cc5)c(O)nc4cc3-c3cnn(C(F)F)c3)CCN12 [Example 150] | 53
Cc1nc2cc(-c3cnn(C(F)F)c3)c(O[C@H]3CCN4C(=O)OC[C@@H]4C3)cc2c(=O)n1Cc1ccc(Cl)c(CO)c1 [Example 155] | 5100
Cc1nc2cc(-c3cc4ccccn4n3)c(O[C@H]3CCN4C(=O)OC[C@@H]4C3)cc2c(=O)n1Cc1ccc(Cl)cc1 [Example 15] | 74
N[C@@H](Cc1nc2cc(-c3cnn(C(F)F)c3)c(O[C@H]3CCN4C(=O)OC[C@@H]4C3)cc2c(=O)n1Cc1ccc(Cl)cc1)C(F)(F)F [Example 157] | 176
Cc1nc2nc(-c3ccn(C(F)F)n3)c(O[C@H]3CCN4C(=O)OC[C@@H]4C3)cc2c(=O)n1Cc1ccc(Cl)cc1 [Example 20] | 247
Cc1cnc(-c2cc3nc(C)n(Cc4ccc(Cl)cc4)c(=O)c3cc2O[C@H]2CCN3C(=O)OC[C@@H]3C2)cn1 [Example 128] | 217

Each compound was assayed on HSV2 (assay: Viral qPCR assay, HSV2). Details: Human alphaherpesvirus 2, 72 h, infected cells, viral genome copies by qPCR normalized to PPIA, read-out: HSV2 Cell EC50.
Assay type: cell-based
Method: as §1

SMILES | EC50 [nM]
O=C1OC[C@@H]2C[C@@H](Oc3cc4c(=O)n(Cc5ccc(Cl)cc5)c(CN5CCC5)nc4cc3-c3cnn(C(F)F)c3)CCN12 [Example 129] | 135
Cc1nc2cc(-c3cc4n(n3)CCN(C3CCOCC3)C4)c(O[C@H]3CCN4C(=O)OC[C@@H]4C3)cc2c(=O)n1Cc1ccc(Cl)cc1 [Example 108] | 87
COc1ccc(-c2cc3nc(C)n(Cc4ccc(Cl)cc4)c(=O)c3cc2O[C@H]2CCN3C(=O)OC[C@@H]3C2)nc1 [Example 112] | 81
O=C1OC[C@@H]2C[C@@H](Oc3cc4c(=O)n(Cc5ccc(Cl)cc5)c(OCC5CC5)nc4cc3-c3cnn(C(F)F)c3)CCN12 [Example 135] | 649
Cc1nn(C(F)F)cc1-c1cc2nc(C)n(Cc3ccc(Cl)cc3)c(=O)c2cc1O[C@H]1CCN2C(=O)OC[C@@H]2C1 [Example 92] | 506
Cc1nc2cc(-c3nc4ncccn4n3)c(O[C@H]3CCN4C(=O)OC[C@@H]4C3)cc2c(=O)n1Cc1ccc(Cl)cc1 [Example 103] | 55
O=C1OC[C@@H]2C[C@@H](Oc3cc4c(=O)n(Cc5ccc(Cl)cc5)cnc4nc3-c3cnco3)CCN12 [Example 37] | 11
Nc1nc2cc(-c3cnn(C(F)F)c3)c(O[C@H]3CCN4C(=O)OC[C@@H]4C3)cc2c(=O)n1Cc1ccc(Cl)cc1 [Example 111] | 60
COc1ncc(-c2cc3nc(C)n(Cc4ccc(Cl)cc4)c(=O)c3cc2O[C@H]2CCN3C(=O)OC[C@@H]3C2)c(C)n1 [Example 93] | 3380
O=C1OC[C@@H]2C[C@@H](Oc3cc4c(=O)n(Cc5ccc(Cl)cc5)c(CNCC(F)(F)F)nc4cc3-c3cnn(C(F)F)c3)CCN12 [Example 133] | 106
COc1cnc(-c2cc3nc(C)n(Cc4ccc(Cl)cc4)c(=O)c3cc2O[C@H]2CCN3C(=O)OC[C@@H]3C2)cn1 [Example 113] | 1690
O=C1OC[C@@H]2C[C@@H](Oc3cc4c(=O)n(Cc5ccc(Cl)cc5)c(OCCO)nc4cc3-c3cnn(C(F)F)c3)CCN12 [Example 102] | 37
COc1nc2cc(-c3cnn(C(F)F)c3)c(O[C@H]3CCN4C(=O)OC[C@@H]4C3)cc2c(=O)n1Cc1ccc(Cl)cc1 [Example 148] | 78
Cc1nc2cc(-c3cc4n(n3)C(C(F)(F)F)CN(C)C4)c(O[C@H]3CCN4C(=O)OC[C@@H]4C3)cc2c(=O)n1Cc1ccc(Cl)cc1 (single isomer, unassigned) [Example 151] | 176
O=C1OC[C@@H]2C[C@@H](Oc3cc4c(=O)n(Cc5ccc(Cl)cc5)c(O)nc4cc3-c3cnn(C(F)F)c3)CCN12 [Example 150] | 88
Cc1nc2cc(-c3cnn(C(F)F)c3)c(O[C@H]3CCN4C(=O)OC[C@@H]4C3)cc2c(=O)n1Cc1ccc(Cl)c(CO)c1 [Example 155] | 5400
Cc1nc2cc(-c3cc4ccccn4n3)c(O[C@H]3CCN4C(=O)OC[C@@H]4C3)cc2c(=O)n1Cc1ccc(Cl)cc1 [Example 15] | 41
N[C@@H](Cc1nc2cc(-c3cnn(C(F)F)c3)c(O[C@H]3CCN4C(=O)OC[C@@H]4C3)cc2c(=O)n1Cc1ccc(Cl)cc1)C(F)(F)F [Example 157] | 81
Cc1nc2nc(-c3ccn(C(F)F)n3)c(O[C@H]3CCN4C(=O)OC[C@@H]4C3)cc2c(=O)n1Cc1ccc(Cl)cc1 [Example 20] | 209
Cc1cnc(-c2cc3nc(C)n(Cc4ccc(Cl)cc4)c(=O)c3cc2O[C@H]2CCN3C(=O)OC[C@@H]3C2)cn1 [Example 128] | 131

What follows are compounds tested on CMV (assay: Viral qPCR assay, CMV). Details: Human betaherpesvirus 5, 72 h, infected cells, viral genome copies by qPCR normalized to PPIA, read-out: CMV Cell EC50.
Assay type: cell-based
Method: as §1

SMILES | EC50 [nM]
O=C1OC[C@@H]2C[C@@H](Oc3cc4c(=O)n(Cc5ccc(Cl)cc5)c(CN5CCC5)nc4cc3-c3cnn(C(F)F)c3)CCN12 [Example 129] | 115
Cc1nc2cc(-c3cc4n(n3)CCN(C3CCOCC3)C4)c(O[C@H]3CCN4C(=O)OC[C@@H]4C3)cc2c(=O)n1Cc1ccc(Cl)cc1 [Example 108] | 201
COc1ccc(-c2cc3nc(C)n(Cc4ccc(Cl)cc4)c(=O)c3cc2O[C@H]2CCN3C(=O)OC[C@@H]3C2)nc1 [Example 112] | 142
O=C1OC[C@@H]2C[C@@H](Oc3cc4c(=O)n(Cc5ccc(Cl)cc5)c(OCC5CC5)nc4cc3-c3cnn(C(F)F)c3)CCN12 [Example 135] | 939
Cc1nn(C(F)F)cc1-c1cc2nc(C)n(Cc3ccc(Cl)cc3)c(=O)c2cc1O[C@H]1CCN2C(=O)OC[C@@H]2C1 [Example 92] | 379
Cc1nc2cc(-c3nc4ncccn4n3)c(O[C@H]3CCN4C(=O)OC[C@@H]4C3)cc2c(=O)n1Cc1ccc(Cl)cc1 [Example 103] | 83
O=C1OC[C@@H]2C[C@@H](Oc3cc4c(=O)n(Cc5ccc(Cl)cc5)cnc4nc3-c3cnco3)CCN12 [Example 37] | 20
Nc1nc2cc(-c3cnn(C(F)F)c3)c(O[C@H]3CCN4C(=O)OC[C@@H]4C3)cc2c(=O)n1Cc1ccc(Cl)cc1 [Example 111] | 85
COc1ncc(-c2cc3nc(C)n(Cc4ccc(Cl)cc4)c(=O)c3cc2O[C@H]2CCN3C(=O)OC[C@@H]3C2)c(C)n1 [Example 93] | 1430
O=C1OC[C@@H]2C[C@@H](Oc3cc4c(=O)n(Cc5ccc(Cl)cc5)c(CNCC(F)(F)F)nc4cc3-c3cnn(C(F)F)c3)CCN12 [Example 133] | 167
COc1cnc(-c2cc3nc(C)n(Cc4ccc(Cl)cc4)c(=O)c3cc2O[C@H]2CCN3C(=O)OC[C@@H]3C2)cn1 [Example 113] | 2970
O=C1OC[C@@H]2C[C@@H](Oc3cc4c(=O)n(Cc5ccc(Cl)cc5)c(OCCO)nc4cc3-c3cnn(C(F)F)c3)CCN12 [Example 102] | 135
COc1nc2cc(-c3cnn(C(F)F)c3)c(O[C@H]3CCN4C(=O)OC[C@@H]4C3)cc2c(=O)n1Cc1ccc(Cl)cc1 [Example 148] | 275
Cc1nc2cc(-c3cc4n(n3)C(C(F)(F)F)CN(C)C4)c(O[C@H]3CCN4C(=O)OC[C@@H]4C3)cc2c(=O)n1Cc1ccc(Cl)cc1 (single isomer, unassigned) [Example 151] | 178
O=C1OC[C@@H]2C[C@@H](Oc3cc4c(=O)n(Cc5ccc(Cl)cc5)c(O)nc4cc3-c3cnn(C(F)F)c3)CCN12 [Example 150] | 79
Cc1nc2cc(-c3cnn(C(F)F)c3)c(O[C@H]3CCN4C(=O)OC[C@@H]4C3)cc2c(=O)n1Cc1ccc(Cl)c(CO)c1 [Example 155] | 1340
Cc1nc2cc(-c3cc4ccccn4n3)c(O[C@H]3CCN4C(=O)OC[C@@H]4C3)cc2c(=O)n1Cc1ccc(Cl)cc1 [Example 15] | 60
N[C@@H](Cc1nc2cc(-c3cnn(C(F)F)c3)c(O[C@H]3CCN4C(=O)OC[C@@H]4C3)cc2c(=O)n1Cc1ccc(Cl)cc1)C(F)(F)F [Example 157] | 170
Cc1nc2nc(-c3ccn(C(F)F)n3)c(O[C@H]3CCN4C(=O)OC[C@@H]4C3)cc2c(=O)n1Cc1ccc(Cl)cc1 [Example 20] | 117
Cc1cnc(-c2cc3nc(C)n(Cc4ccc(Cl)cc4)c(=O)c3cc2O[C@H]2CCN3C(=O)OC[C@@H]3C2)cn1 [Example 128] | 114
